How the values were obtained:
Test in all cases: radiometric filter-binding kinase assay, Kinase HotSpot
Settings in all cases: compound 0.5 µM; ATP 10 µM
MAP4K5 (human) = MAP4K5 (human) (UniProt Q9Y4K4)
SRMS (human) = SRMS (human) (UniProt Q9H3Y6)
CAMK2B (human) = CAMK2B (human) (UniProt Q13554)
IKBKB (human) = IKBKB (human) (UniProt O14920)
MAPK3 (human) = MAPK3 (human) (UniProt P27361)
TYRO3 (human) = TYRO3 (human) (UniProt Q06418)
NTRK3 (human) = NTRK3 (human) (UniProt Q16288)
PDPK1 (human) = PDPK1 (human) (UniProt O15530)
FGFR1 (human) = FGFR1 (human) (UniProt P11362)
CSNK2A2 (human) = CSNK2A2 (human) (UniProt P19784)
STK3 (human) = STK3 (human) (UniProt Q13188)
IKBKE (human) = IKBKE (human) (UniProt Q14164)
CDK4 CCND1 (human) = CDK4 CCND1 (human) (UniProt P24385+P11802)
Sequence of CDK4 CCND1 (human) (P11802 whole entry, looked up): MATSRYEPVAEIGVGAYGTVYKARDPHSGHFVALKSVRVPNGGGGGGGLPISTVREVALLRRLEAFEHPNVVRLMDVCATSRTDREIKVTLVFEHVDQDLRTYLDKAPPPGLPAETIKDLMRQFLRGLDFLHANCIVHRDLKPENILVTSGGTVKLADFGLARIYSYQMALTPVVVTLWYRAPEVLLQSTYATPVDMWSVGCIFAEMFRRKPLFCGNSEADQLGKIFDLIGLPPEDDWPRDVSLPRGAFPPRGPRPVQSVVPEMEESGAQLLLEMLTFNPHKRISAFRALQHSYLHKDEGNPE
Sequence of CDK4 CCND1 (human) (P24385 whole entry, looked up): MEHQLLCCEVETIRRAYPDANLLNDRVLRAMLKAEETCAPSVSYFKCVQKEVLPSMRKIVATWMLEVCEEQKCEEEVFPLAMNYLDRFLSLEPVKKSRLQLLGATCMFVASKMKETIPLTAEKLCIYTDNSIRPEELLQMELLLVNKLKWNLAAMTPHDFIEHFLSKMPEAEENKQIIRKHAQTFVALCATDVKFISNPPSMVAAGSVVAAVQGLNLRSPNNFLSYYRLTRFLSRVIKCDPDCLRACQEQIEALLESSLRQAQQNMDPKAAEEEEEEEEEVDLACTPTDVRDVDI

ROCK2 (human) = ROCK2 (human) (UniProt O75116)
MAPK13 (human) = MAPK13 (human) (UniProt O15264)
MELK (human) = MELK (human) (UniProt Q14680)
FES (human) = FES (human) (UniProt P07332)
HIPK3 (human) = HIPK3 (human) (UniProt Q9H422)
EPHA8 (human) = EPHA8 (human) (UniProt P29322)
MAP3K5 (human) = MAP3K5 (human) (UniProt Q99683)
PHKG1 (human) = PHKG1 (human) (UniProt Q16816)
TAOK3 (human) = TAOK3 (human) (UniProt Q9H2K8)
MAP4K4 (human) = MAP4K4 (human) (UniProt O95819)
Sequence of MAP4K4 (human) (O95819 whole entry, looked up): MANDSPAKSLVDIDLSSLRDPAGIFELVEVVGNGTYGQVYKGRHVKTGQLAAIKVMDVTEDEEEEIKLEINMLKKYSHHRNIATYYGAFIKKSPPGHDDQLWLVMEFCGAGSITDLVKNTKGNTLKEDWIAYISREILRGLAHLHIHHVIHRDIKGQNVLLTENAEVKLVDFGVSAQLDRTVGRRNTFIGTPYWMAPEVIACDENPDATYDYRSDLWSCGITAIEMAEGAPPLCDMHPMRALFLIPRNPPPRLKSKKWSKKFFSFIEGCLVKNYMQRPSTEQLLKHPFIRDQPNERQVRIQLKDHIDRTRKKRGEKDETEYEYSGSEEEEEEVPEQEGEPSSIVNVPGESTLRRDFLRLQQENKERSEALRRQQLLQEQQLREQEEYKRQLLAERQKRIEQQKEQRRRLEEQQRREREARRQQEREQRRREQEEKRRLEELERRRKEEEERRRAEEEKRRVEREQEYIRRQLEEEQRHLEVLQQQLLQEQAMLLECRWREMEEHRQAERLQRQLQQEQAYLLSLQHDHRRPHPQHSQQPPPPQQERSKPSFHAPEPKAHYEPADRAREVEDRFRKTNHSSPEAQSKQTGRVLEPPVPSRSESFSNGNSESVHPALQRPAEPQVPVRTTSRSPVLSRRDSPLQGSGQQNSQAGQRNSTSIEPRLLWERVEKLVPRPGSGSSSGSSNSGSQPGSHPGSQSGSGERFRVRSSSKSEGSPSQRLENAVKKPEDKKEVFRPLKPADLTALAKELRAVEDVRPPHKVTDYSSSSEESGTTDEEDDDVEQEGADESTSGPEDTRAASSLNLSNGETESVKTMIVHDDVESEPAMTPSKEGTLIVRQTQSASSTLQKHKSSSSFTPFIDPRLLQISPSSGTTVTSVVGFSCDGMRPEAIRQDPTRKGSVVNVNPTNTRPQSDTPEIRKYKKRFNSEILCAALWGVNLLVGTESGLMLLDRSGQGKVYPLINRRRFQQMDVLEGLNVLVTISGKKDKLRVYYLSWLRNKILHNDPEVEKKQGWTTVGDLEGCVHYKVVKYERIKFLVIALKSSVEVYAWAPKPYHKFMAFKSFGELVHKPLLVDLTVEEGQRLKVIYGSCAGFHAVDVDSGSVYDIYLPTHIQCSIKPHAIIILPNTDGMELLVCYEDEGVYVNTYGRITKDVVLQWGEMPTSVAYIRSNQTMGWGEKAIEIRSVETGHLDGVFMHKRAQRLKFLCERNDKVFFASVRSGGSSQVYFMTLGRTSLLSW

CSNK1G1 (human) = CSNK1G1 (human) (UniProt Q9HCP0)
Sequence of CSNK1G1 (human) (Q9HCP0 whole entry, looked up): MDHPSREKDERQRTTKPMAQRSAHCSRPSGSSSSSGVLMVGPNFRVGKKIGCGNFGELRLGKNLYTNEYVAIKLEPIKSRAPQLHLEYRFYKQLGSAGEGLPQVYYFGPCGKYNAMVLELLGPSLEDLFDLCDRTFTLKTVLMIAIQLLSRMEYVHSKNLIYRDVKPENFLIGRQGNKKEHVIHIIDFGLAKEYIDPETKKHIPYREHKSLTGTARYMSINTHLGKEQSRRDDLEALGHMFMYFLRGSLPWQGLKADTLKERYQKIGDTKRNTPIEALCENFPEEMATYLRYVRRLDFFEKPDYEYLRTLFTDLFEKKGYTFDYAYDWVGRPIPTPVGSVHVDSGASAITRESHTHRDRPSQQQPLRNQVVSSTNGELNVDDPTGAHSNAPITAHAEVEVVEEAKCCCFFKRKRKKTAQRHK

CLK2 (human) = CLK2 (human) (UniProt P49760)
Sequence of CLK2 (human) (P49760 whole entry, looked up): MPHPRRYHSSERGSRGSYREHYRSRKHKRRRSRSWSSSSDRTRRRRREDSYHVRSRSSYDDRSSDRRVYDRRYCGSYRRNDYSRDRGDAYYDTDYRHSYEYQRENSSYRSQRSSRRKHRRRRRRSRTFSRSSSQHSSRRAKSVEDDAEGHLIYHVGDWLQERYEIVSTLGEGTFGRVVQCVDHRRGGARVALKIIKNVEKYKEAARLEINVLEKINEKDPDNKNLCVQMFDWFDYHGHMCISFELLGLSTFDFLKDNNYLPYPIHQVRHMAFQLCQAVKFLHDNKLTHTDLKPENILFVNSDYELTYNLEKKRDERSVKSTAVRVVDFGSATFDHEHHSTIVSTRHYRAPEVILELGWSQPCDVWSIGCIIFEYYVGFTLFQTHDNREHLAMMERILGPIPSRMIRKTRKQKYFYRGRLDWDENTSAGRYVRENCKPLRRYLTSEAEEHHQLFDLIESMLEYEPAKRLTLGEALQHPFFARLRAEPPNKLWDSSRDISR

CDK1 CCNB1 (human) = CDK1 CCNB1 (human) (UniProt P06493+P14635)
EPHB3 (human) = EPHB3 (human) (UniProt P54753)
MAP2K1 (human) = MAP2K1 (human) (UniProt Q02750)
ULK2 (human) = ULK2 (human) (UniProt Q8IYT8)
AKT1 (human) = AKT1 (human) (UniProt P31749)
CHEK1 (human) = CHEK1 (human) (UniProt O14757)
CDK3 CCNE1 (human) = CDK3 CCNE1 (human) (UniProt Q00526+P24864)
GRK4 (human) = GRK4 (human) (UniProt P32298)
Sequence of GRK4 (human) (P32298 whole entry, looked up): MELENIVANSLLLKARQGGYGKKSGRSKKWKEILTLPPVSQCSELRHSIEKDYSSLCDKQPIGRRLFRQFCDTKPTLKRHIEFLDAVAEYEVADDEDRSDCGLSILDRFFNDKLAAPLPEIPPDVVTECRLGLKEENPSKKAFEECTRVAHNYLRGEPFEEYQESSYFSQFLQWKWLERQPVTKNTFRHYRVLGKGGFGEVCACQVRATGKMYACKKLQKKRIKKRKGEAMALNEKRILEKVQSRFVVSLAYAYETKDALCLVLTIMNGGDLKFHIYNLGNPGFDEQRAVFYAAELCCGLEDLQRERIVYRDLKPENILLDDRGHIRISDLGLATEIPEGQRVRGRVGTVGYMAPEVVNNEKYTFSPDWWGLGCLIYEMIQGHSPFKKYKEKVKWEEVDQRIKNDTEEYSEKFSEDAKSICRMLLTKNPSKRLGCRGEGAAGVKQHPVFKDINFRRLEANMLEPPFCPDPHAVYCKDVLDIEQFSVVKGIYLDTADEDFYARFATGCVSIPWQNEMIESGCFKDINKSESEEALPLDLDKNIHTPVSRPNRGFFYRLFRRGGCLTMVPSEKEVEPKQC

MARK1 (human) = MARK1 (human) (UniProt Q9P0L2)
CAMK1G (human) = CAMK1G (human) (UniProt Q96NX5)
EPHA5 (human) = EPHA5 (human) (UniProt P54756)
CSNK1G3 (human) = CSNK1G3 (human) (UniProt Q9Y6M4)
Sequence of CSNK1G3 (human) (Q9Y6M4 whole entry, looked up): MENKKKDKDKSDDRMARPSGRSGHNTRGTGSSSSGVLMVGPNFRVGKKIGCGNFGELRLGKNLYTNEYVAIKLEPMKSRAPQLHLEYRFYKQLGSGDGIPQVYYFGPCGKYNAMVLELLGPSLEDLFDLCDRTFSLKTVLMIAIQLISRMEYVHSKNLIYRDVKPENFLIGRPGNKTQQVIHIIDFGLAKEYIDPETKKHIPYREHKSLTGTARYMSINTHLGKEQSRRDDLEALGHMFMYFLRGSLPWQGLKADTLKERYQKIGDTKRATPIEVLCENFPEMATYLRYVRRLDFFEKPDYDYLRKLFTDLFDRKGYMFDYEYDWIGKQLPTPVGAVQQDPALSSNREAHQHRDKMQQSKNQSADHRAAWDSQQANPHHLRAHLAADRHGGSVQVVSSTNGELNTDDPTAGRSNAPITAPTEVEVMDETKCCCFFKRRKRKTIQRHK

FGFR4 (human) = FGFR4 (human) (UniProt P22455)
SLK (human) = SLK (human) (UniProt Q9H2G2)
CAMK2D (human) = CAMK2D (human) (UniProt Q13557)
CAMK1D (human) = CAMK1D (human) (UniProt Q8IU85)
EGFR (human) = EGFR (human) (UniProt P00533)

Sequence of CAMK2B (human) (Q13554 whole entry, looked up): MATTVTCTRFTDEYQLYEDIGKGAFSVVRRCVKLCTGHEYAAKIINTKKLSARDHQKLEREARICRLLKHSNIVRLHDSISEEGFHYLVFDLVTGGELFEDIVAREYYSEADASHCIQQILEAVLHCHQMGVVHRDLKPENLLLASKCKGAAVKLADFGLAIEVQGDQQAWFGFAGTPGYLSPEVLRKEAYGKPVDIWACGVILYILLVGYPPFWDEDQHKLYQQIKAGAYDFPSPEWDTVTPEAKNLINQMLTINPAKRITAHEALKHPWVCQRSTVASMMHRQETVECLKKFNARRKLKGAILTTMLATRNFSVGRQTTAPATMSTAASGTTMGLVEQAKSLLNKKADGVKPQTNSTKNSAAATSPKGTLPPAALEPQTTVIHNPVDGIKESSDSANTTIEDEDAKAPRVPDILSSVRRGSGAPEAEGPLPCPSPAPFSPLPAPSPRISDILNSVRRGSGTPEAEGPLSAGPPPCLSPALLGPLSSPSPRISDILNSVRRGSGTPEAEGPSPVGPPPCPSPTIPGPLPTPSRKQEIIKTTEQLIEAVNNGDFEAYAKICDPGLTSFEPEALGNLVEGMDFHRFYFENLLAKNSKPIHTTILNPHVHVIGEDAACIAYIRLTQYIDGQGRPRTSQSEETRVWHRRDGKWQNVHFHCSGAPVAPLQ
Sequence of MAPK3 (human) (P27361 whole entry, looked up): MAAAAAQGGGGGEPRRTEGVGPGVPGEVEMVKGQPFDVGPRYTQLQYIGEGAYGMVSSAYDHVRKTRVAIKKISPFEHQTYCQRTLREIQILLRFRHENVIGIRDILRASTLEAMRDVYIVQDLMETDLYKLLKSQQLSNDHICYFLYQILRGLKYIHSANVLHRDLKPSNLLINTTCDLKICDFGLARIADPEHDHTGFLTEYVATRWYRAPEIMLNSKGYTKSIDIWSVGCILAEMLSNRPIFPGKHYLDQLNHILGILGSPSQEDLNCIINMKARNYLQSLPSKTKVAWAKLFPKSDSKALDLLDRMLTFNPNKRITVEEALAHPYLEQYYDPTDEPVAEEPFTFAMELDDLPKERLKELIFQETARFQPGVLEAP

## Cn1cnc2cc3c(Nc4cccc(Br)c4)ncnc3cc21
MAP4K5 (human)
  residual activity: 56.1%
SRMS (human)
  residual activity: 84%
CAMK2B (human)
  residual activity: 102%
IKBKB (human)
  residual activity: 104%
MAPK3 (human)
  residual activity: 109%
TYRO3 (human)
  residual activity: 94.5%
NTRK3 (human)
  residual activity: 81.4%
PDPK1 (human)
  residual activity: 98.8%
FGFR1 (human)
  residual activity: 89.6%
CSNK2A2 (human)
  residual activity: 91.7%
STK3 (human)
  residual activity: 89.9%
IKBKE (human)
  residual activity: 98.7%
CDK4 CCND1 (human)
  residual activity: 84%
ROCK2 (human)
  residual activity: 88.5%
MAPK13 (human)
  residual activity: 101%
MELK (human)
  residual activity: 89%
FES (human)
  residual activity: 101%
HIPK3 (human)
  residual activity: 107%
EPHA8 (human)
  residual activity: 85.4%
MAP3K5 (human)
  residual activity: 110%
PHKG1 (human)
  residual activity: 85%
TAOK3 (human)
  residual activity: 97.6%
MAP4K4 (human)
  residual activity: 52.1%
CSNK1G1 (human)
  residual activity: 104%
CLK2 (human)
  residual activity: 93.9%
CDK1 CCNB1 (human)
  residual activity: 97.9%
EPHB3 (human)
  residual activity: 93.8%
MAP2K1 (human)
  residual activity: 113%
ULK2 (human)
  residual activity: 74.8%
AKT1 (human)
  residual activity: 89.1%
CHEK1 (human)
  residual activity: 113%
CDK3 CCNE1 (human)
  residual activity: 92.5%
GRK4 (human)
  residual activity: 99.5%
MARK1 (human)
  residual activity: 94.3%
CAMK1G (human)
  residual activity: 94.2%
EPHA5 (human)
  residual activity: 71.5%
CSNK1G3 (human)
  residual activity: 88.1%
FGFR4 (human)
  residual activity: 94.1%
SLK (human)
  residual activity: 67.8%
CAMK2D (human)
  residual activity: 92.2%
CAMK1D (human)
  residual activity: 104%

## CCn1cnc2c(Nc3cccc(Cl)c3)nc(N[C@@H]3CCCC[C@@H]3N)nc21
MAP4K5 (human)
  residual activity: 91.1%
SRMS (human)
  residual activity: 85.9%
CAMK2B (human)
  residual activity: 110%
MAPK3 (human)
  residual activity: 108%
TYRO3 (human)
  residual activity: 98.3%
NTRK3 (human)
  residual activity: 23.4%
PDPK1 (human)
  residual activity: 94.8%
FGFR1 (human)
  residual activity: 85.7%
STK3 (human)
  residual activity: 83.9%
IKBKE (human)
  residual activity: 99.5%
CDK4 CCND1 (human)
  residual activity: 89.9%
ROCK2 (human)
  residual activity: 90.6%
EGFR (human)
  residual activity: 98.1%
MAPK13 (human)
  residual activity: 102%
MELK (human)
  residual activity: 77%
FES (human)
  residual activity: 83.5%
HIPK3 (human)
  residual activity: 102%
EPHA8 (human)
  residual activity: 93%
MAP3K5 (human)
  residual activity: 103%
PHKG1 (human)
  residual activity: 62.8%
TAOK3 (human)
  residual activity: 104%
MAP4K4 (human)
  residual activity: 72.5%
CSNK1G1 (human)
  residual activity: 56.8%
CLK2 (human)
  residual activity: 26.6%
CDK1 CCNB1 (human)
  residual activity: 16.4%
EPHB3 (human)
  residual activity: 92.6%
MAP2K1 (human)
  residual activity: 92.2%
ULK2 (human)
  residual activity: 94.2%
AKT1 (human)
  residual activity: 108%
CHEK1 (human)
  residual activity: 85.8%
CDK3 CCNE1 (human)
  residual activity: 49.7%
GRK4 (human)
  residual activity: 96.2%
MARK1 (human)
  residual activity: 93.1%
CAMK1G (human)
  residual activity: 94.1%
EPHA5 (human)
  residual activity: 73.9%
CSNK1G3 (human)
  residual activity: 45.9%
FGFR4 (human)
  residual activity: 97.5%
SLK (human)
  residual activity: 71.4%
CAMK2D (human)
  residual activity: 89%
CAMK1D (human)
  residual activity: 96.7%
